From US20250092056A1, “URACIL DERIVATIVES HAVING VIRUS REPLICATION INHIBITORY ACTIVITY AND PHARMACEUTICAL COMPOSITION COMPRISING THE SAME” (Shionogi & Co., Ltd., priority 2022, published 2025)
Where “and” joins values, the source holds several entries; their conditions need not be identical. Equal values may be shown once. Read-outs that look alike come from different tables or passages of the source.

How the values were obtained:
SARS-CoV-2 = experiment: Cytopathic effect (CPE) suppression effect confirmation test using HEK293T/ACE2-TMPRSS2 cells; assay type: cell-based; settings: Severe acute respiratory syndrome coronavirus 2, HEK-293T
[1] = biological target: Recombinant SARS-CoV-2 3CL Protease (Severe acute respiratory syndrome coronavirus 2 (2019-nCoV) (SARS-CoV-2), UniProt P0DTD1); experiment: biochemical; assay type: biochemical; settings: 50% SARS-CoV-2 3CL protease inhibitory concentration; read-out: IC50
[2] = 50% SARS-CoV-2 infected cell death inhibitory concentration, HEK293T/ACE2-TMPRSS2 cells, read-out: EC50
[3] = 72 h, read-out: EC50 (50% SARS-CoV-2 infected cell death inhibitory concentration), HEK293T/ACE2-TMPRSS2 cells, CPE suppression, CellTiter-Glo 2.0 after 3 days culture
[4] = 72 h, read-out: EC50 (50% SARS-CoV-2 infected cell death inhibitory concentration), class, HEK293T/ACE2-TMPRSS2 cells, CPE suppression, CellTiter-Glo 2.0 after 3 days culture
[5] = 72 h, HEK293T/ACE2-TMPRSS2 cells, CPE suppression, CellTiter-Glo 2.0 after 3 days culture, read-out: EC50 (50% SARS-CoV-2 infected cell death inhibitory concentration), class

SMILES	EC50 (SARS-CoV-2; [2])	IC50 [1]	also measured
N#CCn1c(C2CCC(F)(F)CC2)c(-c2ccnc(C(F)(F)F)c2)c(=O)n(-c2cncc(Cl)c2)c1=O [Compound I-266]	100 to 1000 nM	10 to 100 nM	–
N#CCn1c(N2CC3(CCOC3)C2)c(-c2cccc(Cl)c2)c(=O)n(-c2cncc(Cl)c2)c1=O [Compound I-182]	–	0.4 nM	EC50 (SARS-CoV-2; [3]): 1.7 nM
Cc1cncc(-n2c(=O)c(Cc3cc(F)c(F)c(F)c3)c(N3CC4(C3)CC(F)(F)C4)n(CC#N)c2=O)c1 [Compound I-105]	–	< 10 nM	EC50 (SARS-CoV-2; [4]): < 100 nM
N#CCn1c(N2Cc3ccccc3C2)c(-c2cccc(Cl)c2)c(=O)n(C2CCn3cnnc32)c1=O (racemic) [Compound I-121]	–	> 100 nM	–
N#CCn1c(N2CC3(C2)CC(F)(F)C3)c(-c2ccc(F)c(Cl)c2)c(=O)n(-c2cncc(F)c2)c1=O [Compound I-231]	< 100 nM	< 10 nM	–
N#CCn1c(N2CC[C@@](O)(C3CC3)C2)c(-c2ccc(F)c(Cl)c2)c(=O)n(-c2cncc(Cl)c2)c1=O (single isomer, unassigned) [Compound I-356]	< 100 nM	< 10 nM	–
N#CCn1c(CCC2(O)CCC2)c(-c2ccc(F)c(C(F)F)c2)c(=O)n(-c2cncc(Cl)c2)c1=O [Compound I-425]	< 100 nM	< 10 nM	–
Cc1cncc(-n2c(=O)c(-c3ccc(F)c(Cl)c3)c(-c3ccc(F)cc3)n(CC#N)c2=O)c1 [Compound I-272]	< 100 nM	< 10 nM	–
N#CCn1c(N2Cc3ccccc3C2)c(Cc2cc(F)c(F)c(F)c2)c(=O)n(-c2cncc(=O)[nH]2)c1=O [Compound I-158]	–	10 to 100 nM	–
Cc1cncc(-n2c(=O)c(Cc3cc(F)c(F)c(F)c3)c(-c3ccc(C)c(C)c3)n(CC#N)c2=O)c1 [Compound I-060]	–	4.7 nM	EC50 (SARS-CoV-2; [3]): 19 nM
Cc1cncc(N2C(=O)N(CC#N)CC3(COc4ccc(Cl)cc43)C2=O)c1 (racemic) [Compound I-282]	< 100 nM	2800 nM	–
N#CCn1c(N2CC(O)(c3ncccn3)C2)c(-c2ccc(F)c(Cl)c2)c(=O)n(-c2cncc(Cl)c2)c1=O [Compound I-232]	–	0.86 nM	EC50 (SARS-CoV-2; [3]): 6.46 nM
N#CCn1c(N2Cc3ccccc3C2)c(Cc2cc(F)c(F)c(F)c2)c(=O)n(-c2cnc3ccccn23)c1=O [Compound I-040]	–	< 10 nM	EC50 (SARS-CoV-2; [4]): < 100 nM
N#CCn1c(N2CC3(C2)CC(F)(F)C3)c(-c2ccc(F)c(Cl)c2)c(=O)n(-c2cncc(C(F)F)n2)c1=O [Compound I-208]	–	1.8 nM	EC50 (SARS-CoV-2; [3]): 7.04 nM
Cc1cncc(-n2c(=O)c(-c3ccc(F)c(Cl)c3)c(N3Cc4ccccc4C3=O)n(CC#N)c2=O)c1 [Compound I-023]	–	< 10 nM	EC50 (SARS-CoV-2; [4]): < 100 nM
N#CCn1c(C2CC2)c(-c2ccc(F)c(Cl)c2)c(=O)n(-c2cncc(Cl)c2)c1=O [Compound I-388]	< 100 nM	< 10 nM	–
Cc1cncc(-n2c(=O)c(-c3ccc(F)c(Cl)c3)c(N3CC4(CCOC4)C3)n(CC#N)c2=O)n1 [Compound I-192]	–	< 10 nM	EC50 (SARS-CoV-2; [4]): < 100 nM
N#CCn1c(N2CC3(C2)CC(F)(F)C3)c(-c2ccc(F)c(Cl)c2)c(=O)n(-c2cc(=O)cc(Br)[nH]2)c1=O [Compound I-222]	–	> 100 nM	–
C[C@@H](C#N)n1c(N2CC[C@@](O)(C(F)F)C2)c(-c2ccc(F)c(F)c2)c(=O)n(-c2cncc(Cl)c2)c1=O (single isomer, unassigned) [Compound I-419]	< 100 nM	< 10 nM	–

SMILES	EC50 (SARS-CoV-2; [2])	IC50 [1]	also measured
Cc1cncc(-n2c(=O)c(Cc3cc(F)c(F)c(F)c3)c(N3CCC(C(F)F)C3)n(CC#N)c2=O)c1 (racemic) [Compound I-107]	–	< 10 nM	EC50 (SARS-CoV-2; [4]): < 100 nM
N#CCn1c(N2CC3(C2)CC(F)(F)C3)c(-c2ccc(F)c(Cl)c2)c(=O)n(-c2cncc(Cl)c2)c1=O [Compound I-077]	–	–	EC50 (SARS-CoV-2; [3]): 1.66 nM
Cc1cncc(-n2c(=O)c(-c3ccc(F)c(Cl)c3)c(Oc3ccccc3)n(CC#N)c2=O)c1 [Compound I-280]	< 100 nM	< 10 nM	–
N#CCn1c(C2CC(F)(C3CC3)C2)c(-c2ccc(F)c(Cl)c2)c(=O)n(-c2cncc(C(F)F)n2)c1=O (centres unmarked) [Compound I-390]	< 100 nM	< 10 nM	–
Cc1cncc(-n2c(=O)c(-c3ccc(F)c(Cl)c3)c(N3CC4(CCOCC4)C3)n(CC#N)c2=O)n1 [Compound I-193]	–	–	EC50 (SARS-CoV-2; [5]): < 100 nM
Cc1coc(-c2c(-c3ccc(F)c(Cl)c3)c(=O)n(-c3cncc(Cl)c3)c(=O)n2CC#N)n1 [Compound I-360]	< 100 nM	< 10 nM	–
N#CCn1c(CCC(F)F)c(-c2ccc(F)c(Cl)c2)c(=O)n(-c2cncc(Cl)c2)c1=O [Compound I-350]	< 100 nM	< 10 nM	–
N#CCn1c(N2CC3(C2)CC(F)(F)C3)c(-c2ccc(F)c(Cl)c2)c(=O)n(-c2cnc3cc(F)ccn23)c1=O [Compound I-149]	–	< 10 nM	EC50 (SARS-CoV-2; [4]): < 100 nM
Cc1cncc(-n2c(=O)c(-c3ccc(F)c(Cl)c3)c(-c3ccc(C4CC4)nc3)n(CC#N)c2=O)c1 [Compound I-269]	< 100 nM	–	–
N#CCn1c(N2CCC(C(F)F)CC2)c(-c2ccc(F)c(Cl)c2)c(=O)n(-c2cncc(OCF)n2)c1=O [Compound I-422]	< 100 nM	< 10 nM	–
N#CCn1c(N2CC3(C2)CC(F)(F)C3)c(-c2ccc(F)c(Cl)c2)c(=O)n(-c2cnc3cc(F)c(F)cn23)c1=O [Compound I-323]	< 100 nM	< 10 nM	–
Cc1cncc(-n2c(=O)c(-c3ccc(F)c(Cl)c3)c(N3Cc4cn[nH]c4C3)n(CC#N)c2=O)c1 [Compound I-074]	–	< 10 nM	EC50 (SARS-CoV-2; [4]): < 100 nM
N#CCn1c(N2CC(OC(F)F)C2)c(-c2ccc(F)c(Cl)c2)c(=O)n(-c2cncc(OCF)n2)c1=O [Compound I-420]	< 100 nM	< 10 nM	–
N#CCn1c(N2CC(F)(F)C2)c(-c2ccc(F)c(Cl)c2)c(=O)n(-c2cncc(Cl)c2)c1=O [Compound I-290]	< 100 nM	< 10 nM	–
Cn1cnc(Cn2c(=O)c(Cc3cc(F)c(F)c(F)c3)c(N3Cc4cn[nH]c4C3)n(CC#N)c2=O)n1 [Compound I-002]	–	> 100 nM	–
CC1(C)CN(c2c(-c3ccc(F)c(Cl)c3)c(=O)n(-c3cnc4cc(F)ccn34)c(=O)n2CC#N)C1 [Compound I-154]	–	< 10 nM	–
N#CCn1c(N2CC3(CCOC3)C2)c(-c2ccc(F)c(Cl)c2)c(=O)n(-c2cc(Cl)[nH]c(=O)c2)c1=O [Compound I-187]	–	10 to 100 nM	–
N#CCn1c(Cl)c(-c2ccc(F)c(Cl)c2)c(=O)n(-c2cnc3ccc(F)cn23)c1=O [Compound I-125]	–	> 100 nM	–
Cc1cc(-n2c(=O)c(Cc3cc(F)c(F)c(F)c3)c(N3CC4(CCOC4)C3)n(CC#N)c2=O)cc(=O)[nH]1 [Compound I-123]	–	> 100 nM	–

SMILES	EC50 (SARS-CoV-2; [2])	IC50 [1]	also measured
N#CCn1c(N2CC3(CCOC3)C2)c(-c2ccc(F)c(Cl)c2)c(=O)n(-c2cc(C(F)(F)F)[nH]c(=O)c2)c1=O [Compound I-186]	–	10 to 100 nM	–
N#CCn1c(N2CCCCC2)c(-c2ccc(F)c(Cl)c2)c(=O)n(-c2cncc(Cl)c2)c1=O [Compound I-254]	–	< 10 nM	–
N#CCn1c(N2CCc3ccccc3C2)c(-c2ccc(F)c(Cl)c2)c(=O)n(-c2cncc(Cl)c2)c1=O [Compound I-253]	< 100 nM	–	–
N#CCn1c(N2CC3(CCOC3)C2)c(C2CCCCC2)c(=O)n(-c2cncc(Cl)c2)c1=O [Compound I-285]	–	> 100 nM	–
Cc1cncc(-n2c(=O)c(Cc3cc(F)c(F)c(F)c3)c(N3C[C@@H]4[C@H](C3)C4(F)F)n(CC#N)c2=O)c1 [Compound I-099]	–	–	EC50 (SARS-CoV-2; [5]): < 100 nM
Cn1cnc(Cn2c(=O)c(Cc3cc(F)c(F)c(F)c3)c(N3CC4(CCOC4)C3)n(CC#N)c2=O)n1 [Compound I-089]	–	> 100 nM	–
Cc1cncc(-n2c(=O)c(Cc3cc(F)c(F)c(F)c3)c(OC(C(F)(F)F)C(F)(F)F)n(CC#N)c2=O)c1 [Compound I-004]	–	> 100 nM	–
N#CCn1c(N2CCCC2)c(-c2ccc(F)c(Cl)c2)c(=O)n(-c2cncc(Cl)c2)c1=O [Compound I-252]	–	< 10 nM	–
Cc1cncc(-n2c(=O)c(Cc3cc(F)c(F)c(F)c3)c(Cl)n(CC#N)c2=O)c1 [Compound I-013]	–	10 to 100 nM	–
Cc1cncc(-n2c(=O)c(Cc3cc(F)c(F)c(F)c3)c(Cl)n(C(C)C#N)c2=O)c1 (racemic) [Compound I-046]	–	> 100 nM	–
N#CCn1c(N2CCN(c3ccccc3)C(=O)C2)c(-c2ccc(F)c(Cl)c2)c(=O)n(-c2cncc(Cl)c2)c1=O [Compound I-081]	–	> 100 nM	–
Cc1cncc(-n2c(=O)c(-c3ccc(F)c(Cl)c3)c(-c3ccccc3)n(CC#N)c2=O)c1 [Compound I-268]	< 100 nM	–	–
N#CCn1c(N2CC(n3cccn3)C2)c(-c2ccc(F)c(Cl)c2)c(=O)n(-c2cncc(Cl)c2)c1=O [Compound I-080]	–	< 10 nM	–
Cc1cc(-n2c(=O)c(-c3ccc(F)c(Cl)c3)c(Cl)n(CC#N)c2=O)c[n+]([O-])c1 [Compound I-277]	–	> 100 nM	–
CC1(c2ccc(F)c(Cl)c2)CN(CC#N)C(=O)N(c2cncc(Cl)c2)C1=O (racemic) [Compound I-283]	–	< 10 nM and > 100 nM	–
N#CCn1c(N2CC3(CCOC3)C2)c(Cc2cc(F)c(F)c(F)c2)c(=O)n(CCC(N)=O)c1=O [Compound I-001]	–	> 100 nM	–
Cc1cncc(-n2c(=O)c(-c3ccc(F)c(Cl)c3)c(N3CCC(C(F)F)CC3)n(CC#N)c2=O)n1 [Compound I-194]	–	–	EC50 (SARS-CoV-2; [5]): < 100 nM
Cc1cncc(-n2c(=O)c(-c3ccc(F)c(Cl)c3)c(-c3ccc(C(=O)O)cc3)n(CC#N)c2=O)c1 [Compound I-024]	–	> 100 nM	–
